Molecules are shown by their SMILES.

The target of the assay is T1, Human ENaC δ, β and γ subunit (Homo sapiens, UniProt P51168+P51170+P51172).
T1 construct: expressed in transfected cells; host or cells: Xenopus laevis (African clawed frog) oocytes injected with cRNA
T1 sequence (P51172 1-802): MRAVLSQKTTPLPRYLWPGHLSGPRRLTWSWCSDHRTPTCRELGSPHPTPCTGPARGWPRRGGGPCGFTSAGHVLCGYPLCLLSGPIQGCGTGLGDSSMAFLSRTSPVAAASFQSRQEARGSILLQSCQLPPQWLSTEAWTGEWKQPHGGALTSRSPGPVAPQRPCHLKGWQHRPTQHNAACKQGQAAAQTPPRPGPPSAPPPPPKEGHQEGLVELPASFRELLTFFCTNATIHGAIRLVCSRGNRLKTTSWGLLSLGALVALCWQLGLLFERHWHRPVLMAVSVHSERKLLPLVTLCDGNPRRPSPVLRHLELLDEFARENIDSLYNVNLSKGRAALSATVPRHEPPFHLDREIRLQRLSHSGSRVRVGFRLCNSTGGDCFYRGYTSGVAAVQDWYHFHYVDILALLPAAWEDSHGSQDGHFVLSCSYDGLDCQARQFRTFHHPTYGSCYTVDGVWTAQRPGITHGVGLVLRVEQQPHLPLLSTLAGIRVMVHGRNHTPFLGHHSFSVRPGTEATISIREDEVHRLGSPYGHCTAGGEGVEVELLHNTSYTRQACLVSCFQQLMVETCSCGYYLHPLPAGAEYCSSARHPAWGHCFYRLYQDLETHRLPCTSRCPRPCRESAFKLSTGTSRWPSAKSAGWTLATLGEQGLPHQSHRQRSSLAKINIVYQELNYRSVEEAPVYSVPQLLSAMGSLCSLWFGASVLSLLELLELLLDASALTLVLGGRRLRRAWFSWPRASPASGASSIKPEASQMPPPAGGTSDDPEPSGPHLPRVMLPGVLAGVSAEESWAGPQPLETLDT
T1 sequence (P51168 1-640): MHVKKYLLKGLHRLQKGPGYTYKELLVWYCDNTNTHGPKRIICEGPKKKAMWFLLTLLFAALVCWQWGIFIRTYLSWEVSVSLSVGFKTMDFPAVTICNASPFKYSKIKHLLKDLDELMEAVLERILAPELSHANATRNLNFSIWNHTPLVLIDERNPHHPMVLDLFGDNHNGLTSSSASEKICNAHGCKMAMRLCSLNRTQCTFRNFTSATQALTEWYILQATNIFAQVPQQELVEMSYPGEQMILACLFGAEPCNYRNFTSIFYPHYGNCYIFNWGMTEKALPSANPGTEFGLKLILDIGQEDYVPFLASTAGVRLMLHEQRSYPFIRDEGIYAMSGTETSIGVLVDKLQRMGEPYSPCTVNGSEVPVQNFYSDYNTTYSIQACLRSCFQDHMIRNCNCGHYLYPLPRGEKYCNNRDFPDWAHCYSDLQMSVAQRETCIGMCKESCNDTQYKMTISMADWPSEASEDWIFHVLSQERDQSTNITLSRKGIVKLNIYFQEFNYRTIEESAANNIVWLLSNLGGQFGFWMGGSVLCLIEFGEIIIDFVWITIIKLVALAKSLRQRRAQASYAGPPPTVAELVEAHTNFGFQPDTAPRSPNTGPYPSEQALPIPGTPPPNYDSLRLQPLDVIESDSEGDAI
T1 sequence (P51170 1-649): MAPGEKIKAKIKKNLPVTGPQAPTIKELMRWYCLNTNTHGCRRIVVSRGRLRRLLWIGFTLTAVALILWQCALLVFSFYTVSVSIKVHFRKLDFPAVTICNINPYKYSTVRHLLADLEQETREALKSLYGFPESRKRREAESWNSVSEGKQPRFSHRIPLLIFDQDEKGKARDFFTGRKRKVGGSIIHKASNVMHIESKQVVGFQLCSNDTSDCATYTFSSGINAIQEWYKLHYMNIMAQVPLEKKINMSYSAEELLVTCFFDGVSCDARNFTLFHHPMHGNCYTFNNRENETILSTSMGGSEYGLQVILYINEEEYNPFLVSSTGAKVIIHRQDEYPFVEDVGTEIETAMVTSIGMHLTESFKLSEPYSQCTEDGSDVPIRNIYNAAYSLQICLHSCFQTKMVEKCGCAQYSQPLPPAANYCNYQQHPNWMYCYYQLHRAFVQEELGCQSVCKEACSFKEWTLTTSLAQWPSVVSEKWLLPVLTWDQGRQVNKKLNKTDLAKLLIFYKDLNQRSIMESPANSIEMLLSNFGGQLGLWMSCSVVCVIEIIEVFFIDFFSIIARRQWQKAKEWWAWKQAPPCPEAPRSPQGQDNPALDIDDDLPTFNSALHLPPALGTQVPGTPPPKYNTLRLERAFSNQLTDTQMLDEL
The assay can be described thus: Measurement of ENaC activation potency (MED) in ENaC-expressing oocyte, Two Electrode Voltage Clamp. Type of assay: cell-based. The conditions noted are these: minimum effective dose at which current started to increase; ENaC-expressing African clawed frog oocyte; smaller MED = higher ENaC activation potency. Summed up:
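Xenopus oocytes injected with human ENaC δ, β and γ cRNA, cultured 16–72 hr, voltage-clamped 30 mV below resting potential in ND96 (pH 7.6) by two-electrode voltage clamp. Compounds (0.1 nM–300 μM) perfused at rising concentrations every 3 min. MED = lowest dose raising current ≥10%, or raising 5 μM capsazepine-evoked current ≥25%, whichever smaller.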
Take `S=C(NCCc1ccccn1)NCc1ccccc1` [Example 14]: the MED came to 3 µM.

`OC(CNC(=S)NCc1ccccc1)c1ccccc1` (stereo not shown) [Example 54]: the MED was 1 µM.

`COc1cc2c(cc1OC)CN(C(=S)NCCc1ccc(Cl)cc1)CC2` [Example 3] yielded an MED of 30 µM.

`COc1cc2c(cc1OC)CN(C(=S)NCCc1ccccc1)CC2` [Example 4] showed an MED of 30 µM.

For the compound `COC(=O)c1ccc(CNC(=S)NCCc2ccccc2)cc1` [Example 56], the MED came out at 10 µM.

`S=C(NCCc1ccccc1)N1Cc2ccccc2C1` [Example 55] had an MED of 30 µM.

Compound `C[C@@H](NC(=S)NC(Cc1ccccc1O)C(=O)O)c1cccc(O)c1` (stereo partly drawn) [Example 106, 2-{3-[(R)-1-(3-hydroxyphenyl)ethyl]thioureido}-3-(2-hydroxyphenyl)propanoic acid] showed an MED of 0.1 to 0.3 µM.

On to `C[C@@H](NC(=S)N[C@H](Cc1ccc(O)cc1)C(=O)O)c1cccc(O)c1` [Example 109], for which the MED worked out at 0.3 µM.

In the case of `Oc1cc2c(cc1O)CN(C(=S)NCCc1ccc(Cl)cc1)CC2` [Example 2], the MED was 3 µM.

Turning to `O[C@@H](CNC(=S)NCc1ccccc1)c1ccccc1` [Example 71], the MED was determined as 1 µM.

`COc1cc(CNC(=S)NCCc2ccccc2)cc(OC)c1` [Example 67] displayed an MED of 10 µM.

`CN(CCc1ccccc1)C(=S)Nc1ccc(O)cc1C(=O)O` [Example 120] yielded an MED of 0.1 to 0.3 µM.

In the case of `CC[C@@H](NC(=S)NCCc1ccccc1O)c1ccccc1` [Example 98], the MED turned out to be 1 µM.

The values are drawn from US20140004243A1, “SALTY TASTE ENHANCER” (AJINOMOTO CO., INC., priority 2011, published 2014).
